Test results from ChEMBL document CHEMBL1201862, “PubChem BioAssay data set” (2004).
Calls of active or inactive are those of the source. Rule as the data show it, for most assays here: actives have a measured IC50 and inactives only a lower limit.

Legend:
[1] = antiviral protection against BTV-induced cell death – arbovirus, BSR cells, confirmation (AID 1250); format: functional;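 also: protection from viral cytopathic effect measured as cell viability by ATP luminescence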
[2] = biological target: Transitional endoplasmic reticulum ATPase (Homo sapiens, UniProt P55072); test: p97 ATPase inhibitors, dose response, biochemical (AID 1534)
[3] = biological target: Heat shock protein HSP 90-alpha (Homo sapiens, UniProt P07900); format: functional, organism-based
[4] = biological target: Transitional endoplasmic reticulum ATPase (Homo sapiens, UniProt P55072, C522A); test: C522A mutant p97 ATPase inhibitors, dose response, counter-screen for p97 inhibitor project, biochemical, luminescence (AID 1544)
[5] = biological target: T1, Heat shock 70 kDa protein 1A (Homo sapiens, UniProt P0DMV8); test: small molecules displacing fluorescent ligand from Hsp70 – biochemical, fluorescence polarization, primary screen (AID 583)
[6] = biological target: T1, Heat shock 70 kDa protein 1A; test: small-molecule inhibition of Hsp70 – biochemical, TR-FRET (AID 786)
[7] = biological target: Glyceraldehyde-3-phosphate dehydrogenase (Homo sapiens, UniProt P04406)
[8] = biological target: T2, Alkaline phosphatase, tissue-nonspecific isozyme (Homo sapiens, UniProt P05186); test: potency against alkaline phosphatase TNAP – biochemical, luminescent, dose response, SAR follow-up (AID 1056)
T2 sequence (P05186 whole entry): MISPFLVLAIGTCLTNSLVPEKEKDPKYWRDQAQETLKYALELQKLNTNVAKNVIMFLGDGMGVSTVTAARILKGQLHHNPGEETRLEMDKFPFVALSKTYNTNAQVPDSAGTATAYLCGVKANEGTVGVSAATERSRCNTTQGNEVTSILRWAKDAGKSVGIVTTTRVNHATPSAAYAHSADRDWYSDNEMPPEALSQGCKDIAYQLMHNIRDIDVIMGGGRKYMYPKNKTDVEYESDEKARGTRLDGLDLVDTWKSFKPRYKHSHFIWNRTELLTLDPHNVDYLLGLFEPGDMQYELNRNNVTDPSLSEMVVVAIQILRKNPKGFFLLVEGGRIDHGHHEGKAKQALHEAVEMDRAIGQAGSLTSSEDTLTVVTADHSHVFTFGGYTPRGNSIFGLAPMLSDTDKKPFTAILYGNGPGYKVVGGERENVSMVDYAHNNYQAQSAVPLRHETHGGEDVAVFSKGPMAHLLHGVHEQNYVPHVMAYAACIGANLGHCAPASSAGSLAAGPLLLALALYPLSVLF

[9] = biological target: T1, Heat shock 70 kDa protein 1A; test: inhibition of Hsp70 binding activity – biochemical, fluorescence polarization, SAR follow-up (AID 1072)
[10] = biological target: T3, Tyrosine-protein phosphatase non-receptor type 7 (Homo sapiens, UniProt P35236); format: functional
T3 sequence (P35236 whole entry): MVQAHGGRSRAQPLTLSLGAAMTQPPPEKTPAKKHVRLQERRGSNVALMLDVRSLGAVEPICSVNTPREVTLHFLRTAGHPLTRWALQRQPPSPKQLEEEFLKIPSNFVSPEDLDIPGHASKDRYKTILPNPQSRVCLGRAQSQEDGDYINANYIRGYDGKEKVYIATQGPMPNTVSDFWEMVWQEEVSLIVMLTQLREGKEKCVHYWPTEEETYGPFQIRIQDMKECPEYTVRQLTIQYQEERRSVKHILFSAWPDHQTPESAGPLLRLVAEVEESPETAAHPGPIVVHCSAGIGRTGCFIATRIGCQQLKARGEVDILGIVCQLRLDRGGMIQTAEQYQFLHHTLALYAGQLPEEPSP

[11] = biological target: T4, Dual specificity protein phosphatase 6 (Rattus norvegicus, UniProt Q64346); format: functional
T4 sequence (Q64346 whole entry): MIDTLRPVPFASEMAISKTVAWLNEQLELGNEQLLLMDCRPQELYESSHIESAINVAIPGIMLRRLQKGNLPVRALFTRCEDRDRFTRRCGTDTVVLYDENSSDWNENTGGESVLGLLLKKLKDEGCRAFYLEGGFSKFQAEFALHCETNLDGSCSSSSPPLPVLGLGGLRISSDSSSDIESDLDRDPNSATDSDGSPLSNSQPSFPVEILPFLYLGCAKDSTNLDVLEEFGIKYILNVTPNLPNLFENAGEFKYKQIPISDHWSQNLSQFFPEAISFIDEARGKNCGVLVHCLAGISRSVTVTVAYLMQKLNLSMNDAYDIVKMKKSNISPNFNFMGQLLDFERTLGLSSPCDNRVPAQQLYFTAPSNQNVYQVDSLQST

[12] = biological target: Heat shock cognate 71 kDa protein (Homo sapiens, UniProt P11142); test: In Vitro Hsc70 Dose Response Fluorescence Polarization Assay. [Related pubchem assays: 1072 ]
[13] = biological target: T4, Dual specificity protein phosphatase 6

T1 sequence (P0DMV8 whole entry): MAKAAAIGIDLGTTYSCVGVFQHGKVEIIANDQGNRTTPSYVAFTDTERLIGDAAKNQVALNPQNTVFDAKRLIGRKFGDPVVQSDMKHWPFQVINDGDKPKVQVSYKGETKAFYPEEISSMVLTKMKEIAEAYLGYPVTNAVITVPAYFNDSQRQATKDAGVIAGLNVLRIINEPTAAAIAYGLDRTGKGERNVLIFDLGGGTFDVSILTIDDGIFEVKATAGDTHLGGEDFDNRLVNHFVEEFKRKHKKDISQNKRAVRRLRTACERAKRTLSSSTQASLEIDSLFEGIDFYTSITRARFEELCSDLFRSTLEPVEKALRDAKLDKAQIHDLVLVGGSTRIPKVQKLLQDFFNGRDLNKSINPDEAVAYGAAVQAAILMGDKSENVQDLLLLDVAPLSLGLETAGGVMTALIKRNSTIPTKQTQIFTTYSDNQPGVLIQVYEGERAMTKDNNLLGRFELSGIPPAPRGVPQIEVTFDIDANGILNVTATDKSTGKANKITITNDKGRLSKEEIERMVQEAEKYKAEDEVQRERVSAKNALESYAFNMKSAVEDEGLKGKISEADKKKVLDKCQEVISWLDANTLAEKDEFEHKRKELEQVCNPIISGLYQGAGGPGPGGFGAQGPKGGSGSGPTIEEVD
Sequence of Transitional endoplasmic reticulum ATPase (Homo sapiens, UniProt P55072) (P55072 whole entry): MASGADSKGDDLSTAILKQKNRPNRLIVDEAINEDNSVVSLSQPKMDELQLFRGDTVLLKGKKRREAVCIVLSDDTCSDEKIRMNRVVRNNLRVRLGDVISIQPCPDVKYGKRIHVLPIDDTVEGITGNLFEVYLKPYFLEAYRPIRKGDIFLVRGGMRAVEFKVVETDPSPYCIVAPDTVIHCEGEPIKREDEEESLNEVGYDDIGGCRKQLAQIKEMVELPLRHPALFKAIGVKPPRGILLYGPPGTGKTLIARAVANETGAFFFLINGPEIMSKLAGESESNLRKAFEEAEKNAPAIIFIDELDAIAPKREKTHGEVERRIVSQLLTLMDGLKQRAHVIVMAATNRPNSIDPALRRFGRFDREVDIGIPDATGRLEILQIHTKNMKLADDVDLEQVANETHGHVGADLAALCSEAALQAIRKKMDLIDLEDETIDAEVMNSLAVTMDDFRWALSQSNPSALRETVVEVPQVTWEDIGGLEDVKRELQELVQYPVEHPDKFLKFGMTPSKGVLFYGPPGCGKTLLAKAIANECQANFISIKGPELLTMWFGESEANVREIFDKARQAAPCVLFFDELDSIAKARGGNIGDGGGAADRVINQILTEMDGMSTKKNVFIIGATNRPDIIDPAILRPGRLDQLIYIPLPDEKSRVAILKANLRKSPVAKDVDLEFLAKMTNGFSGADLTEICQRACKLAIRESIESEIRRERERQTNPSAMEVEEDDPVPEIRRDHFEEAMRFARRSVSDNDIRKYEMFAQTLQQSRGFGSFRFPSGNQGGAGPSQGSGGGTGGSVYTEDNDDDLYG
Sequence of Transitional endoplasmic reticulum ATPase (Homo sapiens, UniProt P55072, C522A) (P55072 2-806 C522A limits assumed): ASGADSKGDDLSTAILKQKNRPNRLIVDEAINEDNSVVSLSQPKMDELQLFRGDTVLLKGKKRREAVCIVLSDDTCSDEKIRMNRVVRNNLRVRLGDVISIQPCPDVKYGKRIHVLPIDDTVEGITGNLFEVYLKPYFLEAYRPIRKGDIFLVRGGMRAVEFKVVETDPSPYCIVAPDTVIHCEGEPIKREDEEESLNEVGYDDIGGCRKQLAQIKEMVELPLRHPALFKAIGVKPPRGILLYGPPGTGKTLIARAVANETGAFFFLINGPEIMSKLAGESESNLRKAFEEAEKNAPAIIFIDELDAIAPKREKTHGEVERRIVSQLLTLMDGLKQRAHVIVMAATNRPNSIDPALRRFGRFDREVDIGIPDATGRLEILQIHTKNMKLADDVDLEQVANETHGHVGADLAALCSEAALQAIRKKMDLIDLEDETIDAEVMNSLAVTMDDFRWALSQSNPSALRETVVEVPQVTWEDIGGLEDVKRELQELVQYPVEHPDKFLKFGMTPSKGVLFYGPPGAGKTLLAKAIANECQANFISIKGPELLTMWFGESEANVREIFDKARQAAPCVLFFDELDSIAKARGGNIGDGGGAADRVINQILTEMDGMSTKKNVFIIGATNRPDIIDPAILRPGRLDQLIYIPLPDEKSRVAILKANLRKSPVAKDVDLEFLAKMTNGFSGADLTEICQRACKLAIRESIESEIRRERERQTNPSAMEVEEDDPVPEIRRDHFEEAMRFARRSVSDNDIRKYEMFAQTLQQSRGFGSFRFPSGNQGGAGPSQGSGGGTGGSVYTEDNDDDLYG
Sequence of Heat shock cognate 71 kDa protein (P11142 whole entry): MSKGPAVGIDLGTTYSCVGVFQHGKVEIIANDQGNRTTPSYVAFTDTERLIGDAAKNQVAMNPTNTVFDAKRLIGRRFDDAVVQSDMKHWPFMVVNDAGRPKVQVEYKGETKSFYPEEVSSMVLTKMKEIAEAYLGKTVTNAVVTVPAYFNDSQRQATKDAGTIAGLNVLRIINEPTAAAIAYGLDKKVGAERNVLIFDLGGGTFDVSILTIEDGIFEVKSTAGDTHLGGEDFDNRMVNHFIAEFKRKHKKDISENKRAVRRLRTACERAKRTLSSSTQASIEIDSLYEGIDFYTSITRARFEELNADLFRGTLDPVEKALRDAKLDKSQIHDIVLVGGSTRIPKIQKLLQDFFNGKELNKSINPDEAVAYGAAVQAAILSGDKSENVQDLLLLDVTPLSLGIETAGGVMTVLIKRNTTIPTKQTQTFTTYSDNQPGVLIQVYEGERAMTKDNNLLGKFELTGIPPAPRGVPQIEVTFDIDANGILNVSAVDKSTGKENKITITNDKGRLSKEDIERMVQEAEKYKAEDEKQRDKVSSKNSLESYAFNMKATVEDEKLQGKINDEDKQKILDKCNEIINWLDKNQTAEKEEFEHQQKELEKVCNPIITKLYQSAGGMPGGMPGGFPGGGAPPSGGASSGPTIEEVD
Sequence of Glyceraldehyde-3-phosphate dehydrogenase (P04406 whole entry): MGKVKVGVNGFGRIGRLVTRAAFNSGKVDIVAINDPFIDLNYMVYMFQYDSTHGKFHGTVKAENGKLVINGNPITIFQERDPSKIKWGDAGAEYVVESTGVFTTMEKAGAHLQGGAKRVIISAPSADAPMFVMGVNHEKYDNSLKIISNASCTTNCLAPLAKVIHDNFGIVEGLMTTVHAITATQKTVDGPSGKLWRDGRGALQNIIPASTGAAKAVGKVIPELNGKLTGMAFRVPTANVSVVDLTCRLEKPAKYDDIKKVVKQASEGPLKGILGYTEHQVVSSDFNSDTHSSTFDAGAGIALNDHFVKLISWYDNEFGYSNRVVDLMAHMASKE

Compound: O=C(O)c1cccc(NN=C2c3ccccc3-c3ccccc32)c1
- IC50 [1]: 23.9 µM (active)
- IC50 [2]: 50 µM (not active)
- AC50 [3]: 8.32 µM (active)
- IC50 [4]: > 50 µM (not active)

Compound: Cc1cc(NC(=O)CSc2ncnc3ccccc23)no1
- IC50 [5]: > 100 µM (not active)
- IC50 [6]: > 100 µM (not active)

Compound: O=C(O)c1ccc(N2C(=O)c3ccccc3C2=O)cc1
- IC50 [7]: > 100 µM (not active)
- IC50 [8]: > 100 µM (inactive)
- IC50 [9]: > 100 µM (not active)
- IC50 [10]: > 100 µM (not active)
- IC50 [11]: > 100 µM (inactive)
- IC50 [12]: > 100 µM (not active)
- IC50 [13]: > 100 µM (inactive)
